The values that follow are results of earlier work, collected in patent US20040147522A1, “Compounds having both alpha7 nicotinic agonist activity and 5HT3 antagonist activity for the treatment of CNS diseases” (priority 2002, published 2004).

The target of one data set is T1, 5HT3R (Homo sapiens, UniProt P46098).
T1 sequence (P46098 24-478): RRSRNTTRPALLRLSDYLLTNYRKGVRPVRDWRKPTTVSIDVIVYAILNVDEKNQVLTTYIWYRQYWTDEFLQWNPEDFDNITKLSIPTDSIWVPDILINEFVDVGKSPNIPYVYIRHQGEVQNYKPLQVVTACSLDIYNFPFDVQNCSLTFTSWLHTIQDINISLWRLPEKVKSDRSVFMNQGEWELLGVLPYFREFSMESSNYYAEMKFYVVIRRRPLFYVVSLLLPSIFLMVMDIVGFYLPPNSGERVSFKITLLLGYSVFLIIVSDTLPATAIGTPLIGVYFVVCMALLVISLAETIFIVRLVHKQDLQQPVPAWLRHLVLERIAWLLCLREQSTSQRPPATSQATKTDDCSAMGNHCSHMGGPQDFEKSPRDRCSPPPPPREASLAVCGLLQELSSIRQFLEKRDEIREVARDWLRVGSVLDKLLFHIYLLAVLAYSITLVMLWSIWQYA

The next data set concerns the target α7 nAChR (Homo sapiens, UniProt P36544).

Chain of α7 nAChR (P36544 23-502): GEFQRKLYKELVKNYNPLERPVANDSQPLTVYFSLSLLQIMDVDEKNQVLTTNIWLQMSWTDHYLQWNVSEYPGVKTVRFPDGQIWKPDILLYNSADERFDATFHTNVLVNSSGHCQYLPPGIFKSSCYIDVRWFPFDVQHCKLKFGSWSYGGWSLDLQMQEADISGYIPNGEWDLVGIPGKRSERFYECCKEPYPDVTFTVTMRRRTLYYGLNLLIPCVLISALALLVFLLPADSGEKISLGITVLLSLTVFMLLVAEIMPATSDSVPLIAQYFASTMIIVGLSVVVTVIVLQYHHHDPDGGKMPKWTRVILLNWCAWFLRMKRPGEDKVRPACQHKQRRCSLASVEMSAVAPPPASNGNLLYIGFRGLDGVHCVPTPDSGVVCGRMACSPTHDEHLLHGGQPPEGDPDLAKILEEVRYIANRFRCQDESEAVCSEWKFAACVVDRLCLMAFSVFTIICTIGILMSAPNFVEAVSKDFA

As to `COc1ccc(/C=C2\CCCN=C2c2cccnc2)c(OC)c1` [GTS-21], on 5HT3R, the “activity at the 5HT3R” value is on record as “little activity”.

As for `Cc1nccn1CC1CCc2c(c3ccccc3n2C)C1=O` (stereo not drawn) [Ondansetron], the “activity at the α7 nAChR” value at α7 nAChR is reported as “little activity”.

With `CN1[C@@H]2CC[C@H]1C[C@@H](OC(=O)c1c[nH]c3ccccc13)C2` [tropesitron], the “α7 nicotinic agonist activity” value at α7 nAChR (reported by Macor et al. 2001) is “α7 nicotinic agonist activity”.
